From US12247045B2, “MAP4K4 inhibitors” (Imperial College Innovations Limited, priority 2018, dated 2025)

Molecular target: T1, human MAP4K4 kinase domain (Homo sapiens, UniProt O95819)
T1 construct: 0.5 nM human MAP4K4 kinase domain (Invitrogen); purchased Invitrogen
Assay: MAP4K4 kinase activity, CisBio HTRF Transcreener ADP assay
Assay type: biochemical
Conditions: IC50 category; ATP at Km (10 μM), 0.5 nM kinase domain, 2 h; read-out: MAP4K4
Text: Compounds of the present invention were screened for their inhibitory activity against MAP4K4, versus selected off-target hits found with early members of this chemical series. MAP4K4 kinase activity was monitored using the CisBio HTRF Transcreener ADP assay, a competitive immunoassay with a reproducible Z′>0.6. In the detection step, endogenous ADP and d2-labeled ADP compete for binding an anti-ADP monoclonal antibody labelled with Eu^3+ cryptate. A ratiometric fluorescent read-out is used at 665 and 620 nm. Reactions were performed in the presence of 1% DMSO with ATP added at Km (10 μM), 0.5 nM human MAP4K4 kinase domain (Invitrogen), 1 μM biotin-myelin basic protein as substrate (Invitrogen), and extension of reaction time to 2 h. Assays were run in Greiner low volume plates with a final reaction volume of 10 μl. The MAP4K4 inhibition data are provided in Table 41 below for selected compounds of the present invention. The data has been categorised based on the IC50 value of the compound as “A”, “B” or “C”. IC50: A≤100 nM; 100 nM<B≤1 μM; 1 μM<C; nd=not determined.

T1 sequence (O95819 25-289 limits assumed): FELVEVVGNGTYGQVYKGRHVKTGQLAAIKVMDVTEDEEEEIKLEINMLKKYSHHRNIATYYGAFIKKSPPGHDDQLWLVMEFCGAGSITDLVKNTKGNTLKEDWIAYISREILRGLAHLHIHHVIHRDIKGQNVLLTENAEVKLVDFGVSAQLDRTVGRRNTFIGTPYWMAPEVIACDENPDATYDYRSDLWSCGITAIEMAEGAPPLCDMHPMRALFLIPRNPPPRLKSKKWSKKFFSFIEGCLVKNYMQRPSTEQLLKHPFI

Row | Structure (SMILES) | IC50 [nM]
1 | O=c1[nH]cnc2c(-c3ccc4[nH]cnc4c3)cn(-c3ccccc3)c12 [Ex-118] | 100 to 1000
2 | Cc1cc(-c2cn(-c3ccccc3)c3c(=O)[nH]cnc23)ccn1 [Ex-130] | 100 to 1000
3 | COCCOc1ccc(-c2cn(-c3cccnc3)c3cc[nH]c(=O)c23)cc1 [Ex-140, 3-[4-(2-Methoxy-ethoxy)-phenyl]-1-pyridin-3-yl-1,5-dihydro-pyrrolo[3,2-c]pyridin-4-one] | ≤ 100
4 | O=c1[nH]cnc2c1c(-c1cnc(N3CC(CO)C3)nc1)cn2-c1ccccc1 [Ex-51] | 100 to 1000
5 | O=C(C1CC1)N1CC(n2cc(-c3cn(-c4cccnc4)c4nc[nH]c(=O)c34)cn2)C1 [Ex-36] | 100 to 1000
6 | O=c1[nH]cnc2c1c(-c1ccc[nH]1)cn2-c1ccccc1 [Ex-56, 7-Phenyl-5-(1H-pyrrol-2-yl)-3,7-dihydro-pyrrolo[2,3-d]pyrimidin-4-one] | ≤ 100
7 | O=c1[nH]cnc2c1c(-c1cnn(CCO)c1)cn2-c1ccc(F)cc1 [Ex-55, 7-(4-fluorophenyl)-5-(1-(2-hydroxyethyl)-1H-pyrazol-4-yl)-3,7-dihydro-4H-pyrrolo[2,3-d]pyrimidin-4-one] | 100 to 1000
8 | CC(C)(O)CCOc1ccc(-n2cc(-c3cccnc3)c3nc[nH]c(=O)c32)cc1 [Ex-125, 5-(4-(3-hydroxy-3-methylbutoxy)phenyl)-7-(pyridin-3-yl)-3,5-dihydro-4H-pyrrolo[3,2-d]pyrimidin-4-one] | ≤ 100
9 | COc1ccc(-n2cc(-c3ccc(OCCC(C)(C)O)cc3)c3c(=O)[nH]cnc32)cn1 [Ex-86] | ≤ 100
10 | O=c1[nH]cnc2c1c(-c1cnn(CCCO)c1)cn2-c1ccccc1 [Ex-113, 5-[1-(3-Hydroxy-propyl)-1H-pyrazol-4-yl]-7-phenyl-3,7-dihydro-pyrrolo[2,3-d]pyrimidin-4-one] | ≤ 100
11 | Cn1ccc(-c2cn(-c3ccccc3)c3nc[nH]c(=O)c23)n1 [Ex-25] | > 1000
12 | O=c1[nH]cnc2c(-c3ccncc3)cn(-c3ccccc3)c12 [Ex-119, 5-Phenyl-7-pyridin-4-yl-3,5-dihydro-pyrrolo[3,2-d]pyrimidin-4-one] | 100 to 1000
13 | O=c1[nH]cnc2c(-c3ccc4cn[nH]c4c3)cn(-c3ccccc3)c12 [Ex-139, 7-(1H-Indazol-6-yl)-5-phenyl-3,5-dihydro-pyrrolo[3,2-d]pyrimidin-4-one] | 100 to 1000
14 | CC(C)(N)CCOc1ccc(-c2cn(-c3cccnc3)c3nc[nH]c(=O)c23)cc1 [Ex-111] | 100 to 1000
15 | O=c1[nH]cnc2c(-c3cccc4cn[nH]c34)cn(-c3ccccc3)c12 [Ex-117] | 100 to 1000
16 | O=c1[nH]cnc2c(-c3ccc(NC4CC4)nc3)cn(-c3ccccc3)c12 [Ex-135] | > 1000

Row | Structure (SMILES) | IC50 [nM]
17 | CC(=O)N1CC(n2cc(-c3cn(-c4cccc(F)c4)c4nc[nH]c(=O)c34)cn2)C1 [Ex-11] | ≤ 100
18 | O=c1[nH]cnc2c1c(-c1ccc(OCC3(CO)COC3)cc1)cn2-c1ccncc1 [Ex-76] | ≤ 100
19 | COCCn1cc(-c2cn(-c3ccccc3)c3nc[nH]c(=O)c23)cn1 [Ex-62] | ≤ 100
20 | CC(C)(O)COc1ccc(-c2cn(-c3ccncc3)c3nc[nH]c(=O)c23)cc1 [Ex-68, 5-(4-(2-hydroxy-2methylpropoxy)phenyl)-7-(pyridine-4-yl)-3,7-dihydro-4H-pyrrolo[2,3-d]pyrimidin-4-one] | ≤ 100
21 | Nc1ncccc1-c1cn(-c2ccccc2)c2c(=O)[nH]cnc12 [Ex-126] | > 1000
22 | COc1cc(-c2cn(-c3ccccc3)c3nc[nH]c(=O)c23)ccn1 [Ex-17] | ≤ 100
23 | CC(C)(O)COc1ccc(-c2cn(-c3ccccc3)c3nc[nH]c(=O)c23)cn1 [Ex-46] | ≤ 100
24 | COCCOc1ccc(-c2cn(-c3cncc(F)c3)c3nc[nH]c(=O)c23)cc1 [Ex-85] | ≤ 100
25 | CC(C)(O)CCOc1ccc(-c2cn(-c3cccnc3)c3nc[nH]c(=O)c23)c(F)c1 [Ex-72] | ≤ 100
26 | COCCNc1ccc(-c2cn(-c3ccccc3)c3nc[nH]c(=O)c23)cn1 [Ex-38] | ≤ 100
27 | CC(C)(C)OC(=O)N1CC(n2cc(-c3cn(-c4ccccc4)c4nc[nH]c(=O)c34)cn2)C1 [Ex-65, 3-[4-(4-oxo-7-phenyl-4,7-dihydro-3H-pyrrolo[2,3-d]pyrimidin-5-yl)-pyrazol-1-yl]-azetidine-1-carboxylic acid tert-butyl ester] | ≤ 100
28 | CNCCn1cc(-c2cn(-c3ccccc3)c3nc[nH]c(=O)c23)cn1 [Ex-109] | 100 to 1000
29 | COCCn1cc(-c2cn(-c3ccncc3)c3nc[nH]c(=O)c23)cn1 [Ex-63] | 100 to 1000
30 | O=c1[nH]cnc2c1c(-c1cnc(NCCO)nc1)cn2-c1ccccc1 [Ex-49] | ≤ 100
31 | COCCCOc1ccc(-c2cn(-c3cccnc3)c3nc[nH]c(=O)c23)cc1 [Ex-71] | ≤ 100
32 | CNc1ccc(-c2cn(-c3ccccc3)c3c(=O)[nH]cnc23)cn1 [Ex-134] | > 1000

Continued, values first:

Row | IC50 [nM] | Structure (SMILES)
33 | 100 to 1000 | CN(C)CCCOc1ccc(-c2cn(-c3ccccc3)c3c(=O)[nH]cnc23)cn1 [Ex-114, 7-[6-(3-Dimethylamino-propoxy)-pyridin-3-yl]-5-phenyl-3,5-dihydro-pyrrolo[3,2-d]pyrimidin-4-one]
34 | 100 to 1000 | CC(=O)N1CC(n2cc(-c3cn(-c4cccnc4)c4nc[nH]c(=O)c34)cn2)C1 [Ex-35]
35 | ≤ 100 | O=c1[nH]cnc2c1c(-c1ccc(OCCC3(O)CC3)cc1)cn2-c1cccnc1 [Ex-70]
36 | > 1000 | O=c1[nH]cnc2c(-c3cncnc3)cn(-c3ccccc3)c12 [Ex-115]
37 | 100 to 1000 | COc1cc(-c2cn(-c3ccccc3)c3c(=O)[nH]cnc23)ccn1 [Ex-127]
38 | ≤ 100 | COc1ccc(-c2cn(-c3ccccc3)c3nc[nH]c(=O)c23)cn1 [Ex-18]
39 | ≤ 100 | Nc1ccc(-c2cn(-c3ccccc3)c3c(=O)[nH]cnc23)cn1 [Ex-138, 7-(6-aminopyridin-3-yl)-5-phenyl-3,5-dihydro-4H-pyrrolo[3,2-d]pyrimidin-4-one]
40 | ≤ 100 | CC(=O)N1CC(n2cc(-c3cn(-c4ccccc4)c4nc[nH]c(=O)c34)cn2)C1 [Ex-60]
41 | ≤ 100 | COCCCn1cc(-c2cn(-c3ccccc3)c3nc[nH]c(=O)c23)cn1 [Ex-64]
42 | 100 to 1000 | COc1cnc(-c2cn(-c3ccccc3)c3nc[nH]c(=O)c23)cn1 [Ex-107]
43 | 100 to 1000 | COc1cc(-n2cc(-c3ccc(OCCC(C)(C)O)cc3)c3c(=O)[nH]cnc32)ccn1 [Ex-83]
44 | 100 to 1000 | Cn1cc(-c2cn(-c3ccccc3)c3c(=O)[nH]cnc23)cn1 [Ex-120]
45 | ≤ 100 | Nc1ccc(-c2cn(-c3ccccc3)c3nc[nH]c(=O)c23)cn1 [Ex-9]
46 | ≤ 100 | N#Cc1cc(-c2cn(-c3ccccc3)c3nc[nH]c(=O)c23)cnc1N1CC[C@H](O)C1 [Ex-41]
47 | ≤ 100 | CC(C)(O)COc1ccc(-c2cn(-c3cccnc3)c3nc[nH]c(=O)c23)cc1 [Ex-66, 5-(4-(2-hydroxy-2-methylpropoxy)phenyl)-7-(pyridin-3-yl)-3,7-dihydro-4H-pyrrolo[2,3-d]pyrimidin-4-one]
48 | ≤ 100 | O=c1[nH]cnc2c1c(-c1cnn(Cc3ccccc3)c1)cn2-c1ccccc1 [Ex-23]
49 | ≤ 100 | CC(C)(O)CCOc1ccc(-c2cn(-c3cccnc3)c3nc[nH]c(=O)c23)cc1C#N [Ex-87]
50 | ≤ 100 | COC(=O)Cn1cc(-c2cn(-c3ccccc3)c3nc[nH]c(=O)c23)cn1 [Ex-21]

Row | IC50 [nM] | Structure (SMILES)
51 | 100 to 1000 | CC(C)(N)COc1ccc(-c2cn(-c3cccnc3)c3nc[nH]c(=O)c23)cc1 [Ex-110]
52 | ≤ 100 | Nc1cc(-c2cn(-c3ccccc3)c3nc[nH]c(=O)c23)ccn1 [Ex-8]
53 | ≤ 100 | CC(=O)Nc1ccc(-c2cn(-c3ccccc3)c3nc[nH]c(=O)c23)cn1 [Ex-6]
54 | > 1000 | O=c1[nH]cnc2c1c(-c1cnc(N3CC(O)C3)nc1)cn2-c1cccnc1 [Ex-37]
55 | ≤ 100 | CN(C)CCCOc1ccc(-c2cn(-c3cccnc3)c3nc[nH]c(=O)c23)cc1 [Ex-33]
56 | ≤ 100 | CN(CCC(C)(C)O)c1ccc(-c2cn(-c3ccccc3)c3nc[nH]c(=O)c23)cn1 [Ex-95]
57 | 100 to 1000 | COCCNc1ccc(-c2cn(-c3cccnc3)c3nc[nH]c(=O)c23)cn1 [Ex-39]
58 | ≤ 100 | CC(C)(O)CCOc1ccc(-c2cn(-c3ccncc3)c3nc[nH]c(=O)c23)cc1 [Ex-69]
59 | ≤ 100 | CN(CCO)c1ccc(-c2cn(-c3ccccc3)c3nc[nH]c(=O)c23)cn1 [Ex-52]
60 | ≤ 100 | O=c1[nH]cnc2c1c(-c1ccc(OCC3(CO)COC3)cc1)cn2-c1cccnc1 [Ex-79]
61 | 100 to 1000 | O=c1[nH]cnc2c(-c3cnn(CCO)c3)cn(-c3ccccc3)c12 [Ex-123]
62 | ≤ 100 | COCCNc1ccc(-c2cn(-c3ccncc3)c3nc[nH]c(=O)c23)cn1 [Ex-14]
63 | ≤ 100 | O=c1[nH]cnc2c(-c3ccccc3)cn(-c3cncc(F)c3)c12 [Ex-44]
64 | 100 to 1000 | CC(=O)N1CC(n2cc(-c3cn(-c4ccncc4)c4nc[nH]c(=O)c34)cn2)C1 [Ex-12]
65 | 100 to 1000 | COc1ccc(-c2cn(-c3ccccc3)c3nc[nH]c(=O)c23)nc1 [Ex-105]
66 | 100 to 1000 | CC(=O)N1CC(n2cc(-c3cn(-c4ccc(F)cc4)c4nc[nH]c(=O)c34)cn2)C1 [Ex-3, 5-[1-(1-Acetyl-azetidin-3-yl)-1H-pyrazol-4-yl]-7-(4-fluoro-phenyl)-3,7-dihydro-pyrrolo[2,3-d]pyrimidin-4-one]
67 | 100 to 1000 | O=c1[nH]cnc2c1c(-c1ccccc1)cn2-c1cccnc1 [Ex-1, 5-Phenyl-7-pyridin-3-yl-3,7-dihydro-pyrrolo[2,3-d]pyrimidin-4-one]
68 | 100 to 1000 | COCCNc1ncc(-c2cn(-c3ccncc3)c3nc[nH]c(=O)c23)cn1 [Ex-32]
